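Grown in 96-well plates, cells were treated for 48 hours with each compound at five concentrations. Insufficient inhibition: endpoint recorded as highest concentration tested. GI50 = concentration required for 50% inhibition of growth.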 Active and inactive are the calls of the source. Rule as the data show it: active = GI50 up to about 1.1 µM and inactive = higher.
Legend:
Assay in all cases: growth of human tumour cells (NCI), 48 h
UO-31 = test system: UO-31
Hs-578T = test system: Hs-578T
SF-268 = test system: SF-268
CAKI-1 = test system: CAKI-1
HCT-15 = test system: HCT-15
UACC-257 = test system: UACC-257
HOP-92 = test system: HOP-92
ACHN = test system: ACHN
K562 = test system: K562
MOLT-4 = test system: MOLT-4
UACC-62 = test system: UACC-62
786-0 = test system: 786-0
RXF 393 = test system: RXF 393
T47D = test system: T47D
RPMI-8226 = test system: RPMI-8226
MDA-MB-435 = test system: MDA-MB-435
MDA-MB-231 = test system: MDA-MB-231
SF-295 = test system: SF-295
SK-OV-3 = test system: SK-OV-3
SF-539 = test system: SF-539

Structure (SMILES) | GI50 (UO-31) | GI50 (Hs-578T) | GI50 (SF-268) | GI50 (CAKI-1) | GI50 (HCT-15) [µM] | GI50 (UACC-257) | GI50 (HOP-92) | GI50 (ACHN) | GI50 (K562) | GI50 (MOLT-4) | GI50 (UACC-62) | GI50 (786-0) | GI50 (RXF 393) | GI50 (T47D) | GI50 (RPMI-8226) | GI50 (MDA-MB-435) | GI50 (MDA-MB-231) | GI50 (SF-295) | GI50 (SK-OV-3) | GI50 (SF-539)
NC(Cc1ccccc1)P(=O)(O)O (stereo unspecified) | > 100 µM (inactive) | > 100 µM (inactive) | > 100 µM (inactive) | > 100 µM (inactive) | > 100 | > 100 µM (inactive) | > 100 µM (inactive) | > 100 µM (inactive) | > 100 µM (inactive) | > 100 µM (inactive) | > 100 µM (inactive) | > 100 µM (inactive) | > 100 µM (inactive) | > 100 µM (inactive) | > 100 µM (inactive) | > 100 µM (inactive) | > 100 µM (inactive) | > 100 µM (inactive) | – | –
O=c1c2ccccc2c2ccccc2c(=O)n1-c1cc2c3ccccc3ccc2c2ccccc12 | > 100 µM (inactive) | > 100 µM (inactive) | > 100 µM (inactive) | > 100 µM (inactive) | > 100 | > 100 µM (inactive) | > 100 µM (inactive) | > 100 µM (inactive) | – | – | > 100 µM (inactive) | > 100 µM (inactive) | > 100 µM (inactive) | > 100 µM (inactive) | 60.3 µM (inactive) | > 100 µM (inactive) | > 100 µM (inactive) | > 100 µM (inactive) | > 100 µM (inactive) | > 100 µM (inactive)
CN1c2ccccc2C(=O)NC12CCN(Cc1ccccc1)CC2 | 34.6 µM (inactive) | 36.7 µM (inactive) | 89.7 µM (inactive) | – | 42.5 | 59.6 µM (inactive) | 18.3 µM (inactive) | 31.2 µM (inactive) | – | 38.9 µM (inactive) | 86.5 µM (inactive) | 62.4 µM (inactive) | > 100 µM (inactive) | 70.3 µM (inactive) | 47.2 µM (inactive) | 63.1 µM (inactive) | 96.6 µM (inactive) | 32 µM (inactive) | 84.9 µM (inactive) | 50.7 µM (inactive)
O[C@@H]1C[C@@H]2N[C@@](O)(C[C@@H]2O)[C@H]1O | > 100 µM (inactive) | > 100 µM (inactive) | > 100 µM (inactive) | – | > 100 | > 100 µM (inactive) | > 100 µM (inactive) | > 100 µM (inactive) | > 100 µM (inactive) | > 100 µM (inactive) | > 100 µM (inactive) | > 100 µM (inactive) | > 100 µM (inactive) | > 100 µM (inactive) | > 100 µM (inactive) | > 100 µM (inactive) | > 100 µM (inactive) | > 100 µM (inactive) | > 100 µM (inactive) | > 100 µM (inactive)
CCCN(CCC)C(=O)c1c(N2CCN(C)CC2)c2cccnc2n2c(C)cnc12 | 70 µM (inactive) | > 100 µM (inactive) | > 100 µM (inactive) | 60.8 µM (inactive) | > 100 | > 100 µM (inactive) | > 100 µM (inactive) | > 100 µM (inactive) | > 100 µM (inactive) | 85.9 µM (inactive) | > 100 µM (inactive) | > 100 µM (inactive) | 24.8 µM (inactive) | 14.8 µM (inactive) | > 100 µM (inactive) | > 100 µM (inactive) | > 100 µM (inactive) | > 100 µM (inactive) | – | > 100 µM (inactive)
O=C1CCCCCCCCCCC1CCCCCBr (stereo unspecified) | 26.1 µM (inactive) | 46.8 µM (inactive) | 30.8 µM (inactive) | 31.2 µM (inactive) | 24.3 | 21.3 µM (inactive) | 18.4 µM (inactive) | 27.4 µM (inactive) | 16.1 µM (inactive) | 17.1 µM (inactive) | 31.1 µM (inactive) | 32.4 µM (inactive) | 19.6 µM (inactive) | 24.2 µM (inactive) | – | 40.8 µM (inactive) | 20.3 µM (inactive) | 34.4 µM (inactive) | 57.9 µM (inactive) | 22.8 µM (inactive)
